Reference: patent publication US9938274B1, “Naphthyridine compounds, medical combinations and use thereof” (Nanjing Natinefy Pharmatech Co., Ltd., priority 2016, dated 2018)

What was measured:
U87MG tumor = assay: Tumor xenograft model, U87MG, tumor growth inhibition; type: in vivo, nude mice (BALB/cA nu/nu); conditions: 10 mg/kg p.o. QD, day 22
[1] = In vivo pharmacokinetic study in rats
Experimental: An In Vivo Pharmacokinetic Study in Rats
For intravenous injection, rats are given a dose of 1 mg/kg. For oral administration, rats are given a dose of 5 mg/kg. […] The whole blood is centrifuged at 8000 rpm for 5 min to collect plasma, which is then transferred to 96-well pallet, and stored at −20° C. till LC-MS/MS testing.
Pharmacokinetic parameters among rats after medication are estimated using the non-compartment model of software WinNonlin.
The peak concentration, Cmax: the actual measurements are used;

VEGFR-2 (h) = VEGFR-2 (h) (Homo sapiens (Human), UniProt P35968); assay: HTRF KinEASE TK kinase inhibition assay, VEGFR-2; type: biochemical
c-Met (h) = c-Met (h) (Homo sapiens (Human), UniProt P08581); assay: HTRF KinEASE TK kinase inhibition assay, c-Met; type: biochemical
c-Met (h), sequence (P08581 25-1390): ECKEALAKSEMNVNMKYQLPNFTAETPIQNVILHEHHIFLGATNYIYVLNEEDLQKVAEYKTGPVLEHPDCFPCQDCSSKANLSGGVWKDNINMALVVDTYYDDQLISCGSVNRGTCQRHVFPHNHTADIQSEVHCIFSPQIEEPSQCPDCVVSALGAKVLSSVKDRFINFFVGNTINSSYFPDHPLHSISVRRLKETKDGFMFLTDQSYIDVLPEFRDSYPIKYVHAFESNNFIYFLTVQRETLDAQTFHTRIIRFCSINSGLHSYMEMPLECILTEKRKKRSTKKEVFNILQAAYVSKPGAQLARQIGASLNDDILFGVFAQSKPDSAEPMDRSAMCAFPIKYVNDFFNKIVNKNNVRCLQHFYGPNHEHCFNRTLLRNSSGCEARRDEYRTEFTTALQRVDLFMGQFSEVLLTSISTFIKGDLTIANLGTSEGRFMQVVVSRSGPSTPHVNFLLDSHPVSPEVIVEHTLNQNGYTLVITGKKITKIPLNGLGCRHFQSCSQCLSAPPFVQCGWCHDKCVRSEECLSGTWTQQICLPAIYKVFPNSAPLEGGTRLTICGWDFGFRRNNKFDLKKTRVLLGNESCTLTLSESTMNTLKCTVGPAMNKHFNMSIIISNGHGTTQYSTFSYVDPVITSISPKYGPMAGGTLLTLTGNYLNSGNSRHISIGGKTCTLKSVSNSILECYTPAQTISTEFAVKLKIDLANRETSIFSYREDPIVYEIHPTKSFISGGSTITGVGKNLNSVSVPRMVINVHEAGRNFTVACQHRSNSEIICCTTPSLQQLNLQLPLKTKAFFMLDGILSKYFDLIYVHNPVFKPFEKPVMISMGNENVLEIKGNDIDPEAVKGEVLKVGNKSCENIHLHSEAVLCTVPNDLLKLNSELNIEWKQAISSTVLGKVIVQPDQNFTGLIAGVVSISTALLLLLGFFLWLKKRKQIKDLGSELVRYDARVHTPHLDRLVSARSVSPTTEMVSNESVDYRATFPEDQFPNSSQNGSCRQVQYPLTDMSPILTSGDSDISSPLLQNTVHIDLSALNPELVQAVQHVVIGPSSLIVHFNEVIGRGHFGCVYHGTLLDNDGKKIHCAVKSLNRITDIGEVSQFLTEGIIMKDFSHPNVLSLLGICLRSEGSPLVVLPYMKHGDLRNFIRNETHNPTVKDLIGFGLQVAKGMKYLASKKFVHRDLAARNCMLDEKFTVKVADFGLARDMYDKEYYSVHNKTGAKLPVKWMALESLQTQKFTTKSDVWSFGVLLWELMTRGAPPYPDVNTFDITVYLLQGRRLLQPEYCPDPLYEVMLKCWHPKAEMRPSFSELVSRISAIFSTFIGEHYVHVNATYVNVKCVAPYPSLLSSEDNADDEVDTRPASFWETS

VEGFR-2 (h), sequence (P35968 20-1356): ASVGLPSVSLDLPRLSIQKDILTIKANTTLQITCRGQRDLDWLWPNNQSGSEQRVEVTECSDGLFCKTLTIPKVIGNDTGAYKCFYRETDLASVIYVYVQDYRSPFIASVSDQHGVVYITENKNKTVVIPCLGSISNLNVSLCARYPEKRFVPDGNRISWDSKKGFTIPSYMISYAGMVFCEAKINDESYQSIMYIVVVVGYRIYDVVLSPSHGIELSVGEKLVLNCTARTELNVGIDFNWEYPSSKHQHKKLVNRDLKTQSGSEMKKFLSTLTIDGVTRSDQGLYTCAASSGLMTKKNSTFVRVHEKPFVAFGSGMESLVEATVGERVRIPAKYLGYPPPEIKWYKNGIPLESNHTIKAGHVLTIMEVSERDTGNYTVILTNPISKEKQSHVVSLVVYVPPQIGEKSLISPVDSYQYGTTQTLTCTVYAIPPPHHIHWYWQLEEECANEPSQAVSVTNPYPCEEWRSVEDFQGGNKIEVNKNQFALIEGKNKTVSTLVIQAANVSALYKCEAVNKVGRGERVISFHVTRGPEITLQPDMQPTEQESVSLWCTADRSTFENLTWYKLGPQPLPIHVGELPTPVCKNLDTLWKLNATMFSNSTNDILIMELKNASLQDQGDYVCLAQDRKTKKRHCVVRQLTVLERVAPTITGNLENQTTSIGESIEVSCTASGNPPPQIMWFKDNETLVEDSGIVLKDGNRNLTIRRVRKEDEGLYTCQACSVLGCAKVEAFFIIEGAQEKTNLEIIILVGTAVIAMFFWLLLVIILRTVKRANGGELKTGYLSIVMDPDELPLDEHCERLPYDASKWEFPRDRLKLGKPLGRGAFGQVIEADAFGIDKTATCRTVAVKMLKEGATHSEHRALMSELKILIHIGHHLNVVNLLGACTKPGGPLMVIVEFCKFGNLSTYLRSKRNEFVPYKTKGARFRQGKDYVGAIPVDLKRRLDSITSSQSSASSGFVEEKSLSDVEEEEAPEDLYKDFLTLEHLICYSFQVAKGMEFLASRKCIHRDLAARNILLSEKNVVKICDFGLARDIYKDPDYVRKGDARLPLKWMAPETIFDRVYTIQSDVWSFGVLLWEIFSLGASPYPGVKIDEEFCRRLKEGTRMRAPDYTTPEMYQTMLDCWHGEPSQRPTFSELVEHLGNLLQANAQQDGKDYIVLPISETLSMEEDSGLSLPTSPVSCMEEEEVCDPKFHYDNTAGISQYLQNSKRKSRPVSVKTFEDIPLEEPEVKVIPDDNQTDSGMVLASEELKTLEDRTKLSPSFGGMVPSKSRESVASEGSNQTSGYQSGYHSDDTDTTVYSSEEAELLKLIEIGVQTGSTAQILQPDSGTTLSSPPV

IC50 (VEGFR-2 (h)) | IC50 (c-Met (h)) | SMILES | further results
– | – | COc1ccc2c(Oc3ccc(Nc4nccc5[nH]cc(-c6ccc(F)cc6)c(=O)c45)cc3F)ccnc2c1 [Comparative compound A, reference compound] | Tumor growth inhibition rate, % TGI (U87MG tumor): 55.3%
– | – | O=c1c(-c2ccc(F)cc2)c[nH]c2ccnc(Nc3ccc(Oc4ccnc5cc(OCCO)ccc45)c(F)c3)c12 [Comparative compound C, reference compound] | CL ([1]; 5 mg/kg i.g.): 31.7 mL/min/kg; Vz ([1]; 5 mg/kg i.g.): 7.89 L/kg; AUC(0-t) ([1]; rat, plasma, iv, 1 mg/kg i.v.): 2290 ng·h/mL; Cmax ([1]; rat, plasma, iv, 1 mg/kg i.v.): 970 ng/mL; clearance ([1]; rat, plasma, iv, 1 mg/kg i.v.): 4.83 mL/min/kg; half-life ([1]; rat, plasma, iv, 1 mg/kg i.v.): 2.35 h; Vd ([1]; rat, plasma, iv, 1 mg/kg i.v., read-out: Vz): 1.21 L/kg; bioavailability ([1]; rat, plasma, oral, 5 mg/kg i.g. vs 1 mg/kg i.v., read-out: F (absolute bioavailability)): 16.2%; AUC(0-t) ([1]; rat, plasma, po, 5 mg/kg i.g.): 1850 ng·h/mL; Cmax ([1]; rat, plasma, po, 5 mg/kg i.g.): 530 ng/mL; half-life ([1]; rat, plasma, po, 5 mg/kg i.g.): 2.14 h
60 nM | – | COC(C)(C)COc1ccc2c(Oc3ccc(Nc4nccc5[nH]cc(-c6ccc(F)cc6)c(=O)c45)cc3F)ccnc2c1 [Comparative compound D, reference compound] | –
– | 19.4 nM | COc1cc2c(Oc3ccc(Nc4nccc5[nH]cc(-c6ccc(F)cc6)c(=O)c45)cc3F)ccnc2cc1OCC(C)(C)O [Example 1, 5-((3-fluoro-4-((7-(2-hydroxy-2-methylpropoxy)-6-methoxyquinolin-4-yl)oxy)-phenyl)amino)-3-(4-fluorophenyl)-1,6-naphthyridin-4(1H)-one] | –
– | 15.6 nM | COc1cc2c(Oc3ccc(Nc4nccc5[nH]cc(-c6ccc(F)cc6)c(=O)c45)cc3F)ccnc2cc1OCC(C)O (centres unmarked) [Example 2, 5-((3-fluoro-4-((7-(2-hydroxypropoxy)-6-methoxyquinolin-4-yl)oxy)phenyl)-amino)-3-(4-fluorophenyl)-1,6-naphthyridin-4(1H)-one] | –
– | 20.1 nM | COc1cc2c(Oc3ccc(Nc4nccc5[nH]cc(-c6ccccc6)c(=O)c45)cc3F)ccnc2cc1OCC(C)(C)O [Example 3, 5-((3-fluoro-4-((7-(2-hydroxy-2-methylpropoxy)-6-methoxyquinolin-4-yl)oxy)-phenyl)amino)-3-phenyl-1,6-naphthyridin-4(1H)-one] | –
– | 9.4 nM | CC(C)(O)COc1ccc2c(Oc3ccc(Nc4nccc5[nH]cc(-c6ccccc6F)c(=O)c45)cc3F)ccnc2c1 [Example 5, 5-((3-fluoro-4-((7-(2-hydroxy-2-methylpropoxy)quinolin-4-yl)oxy)phenyl)amino)-3-(2-fluorophenyl)-1,6-naphthyridin-4(1H)-one] | –
– | 7.9 nM | CC(C)(O)COc1ccc2c(Oc3ccc(Nc4nccc5[nH]cc(-c6cccc(F)c6)c(=O)c45)cc3F)ccnc2c1 [Example 6, 5-((3-fluoro-4-((7-(2-hydroxy-2-methylpropoxy)quinolin-4-yl)oxy)phenyl)amino)-3-(3-fluorophenyl)-1,6-naphthyridin-4(1H)-one] | –
– | 16.8 nM | COc1cc2nccc(Oc3ccc(Nc4nccc5[nH]cc(-c6ccc(F)cc6)c(=O)c45)cc3F)c2cc1OCC(C)(C)O [Example 8, 5-((3-fluoro-4-((6-(2-hydroxy-2-methylpropoxy)-7-methoxyquinolin-4-yl)oxy)-phenyl)amino)-3-(4-fluorophenyl)-1,6-naphthyridin-4(1H)-one] | –
– | 13.3 nM | COc1cc2nccc(Oc3ccc(Nc4nccc5[nH]cc(-c6ccccc6)c(=O)c45)cc3F)c2cc1OCC(C)(C)O [Example 9, 5-((3-fluoro-4-((6-(2-hydroxy-2-methylpropoxy)-7-methoxyquinolin-4-yl)oxy)-phenyl)amino)-3-phenyl-1,6-naphthyridin-4(1H)-one] | –
> 5000 nM | 12.7 nM | Cn1cc(-c2ccc(F)cc2)c(=O)c2c(Nc3ccc(Oc4ccnc5cc(OCC(C)(C)O)ccc45)c(F)c3)nccc21 [Example 10, 5-((3-fluoro-4-((7-(2-hydroxy-2-methylpropoxy)quinolin-4-yl)oxy)phenyl)amino)-3-(4-fluorophenyl)-1-methyl-1,6-naphthyridin-4(1H)-one] | –
> 5000 nM | 9.5 nM | CCn1cc(-c2ccc(F)cc2)c(=O)c2c(Nc3ccc(Oc4ccnc5cc(OCC(C)(C)O)ccc45)c(F)c3)nccc21 [Example 11, 1-ethyl-5-((3-fluoro-4-((7-(2-hydroxy-2-methylpropoxy)quinolin-4-yl)oxy)phenyl)-amino)-3-(4-fluorophenyl)-1,6-naphthyridin-4(1H)-one] | –
> 5000 nM | 7.2 nM | CCCn1cc(-c2ccc(F)cc2)c(=O)c2c(Nc3ccc(Oc4ccnc5cc(OCC(C)(C)O)ccc45)c(F)c3)nccc21 [Example 12, 5-((3-fluoro-4-((7-(2-hydroxy-2-methylpropoxy)quinolin-4-yl)oxy)phenyl)amino)-3-(4-fluorophenyl)-1-propyl-1,6-naphthyridin-4(1H)-one] | –
> 5000 nM | 9 nM | CC(C)n1cc(-c2ccc(F)cc2)c(=O)c2c(Nc3ccc(Oc4ccnc5cc(OCC(C)(C)O)ccc45)c(F)c3)nccc21 [Example 13, 5-((3-fluoro-4-((7-(2-hydroxy-2-methylpropoxy)quinolin-4-yl)oxy)phenyl)amino)-3-(4-fluorophenyl)-1-isopropyl-1,6-naphthyridin-4(1H)-one] | –
> 5000 nM | 14.3 nM | CC(C)(O)COc1ccc2c(Oc3ccc(Nc4nccc5c4c(=O)c(-c4ccc(F)cc4)cn5C4CC4)cc3F)ccnc2c1 [Example 14, 1-cyclopropyl-5-((3-fluoro-4-((7-(2-hydroxy-2-methylpropoxy)quinolin-4-yl)oxy)-phenyl)amino)-3-(4-fluorophenyl)-1,6-naphthyridin-4(1H)-one] | –
> 5000 nM | 22.4 nM | CC(C)(O)COc1ccc2c(Oc3ccc(Nc4nccc5c4c(=O)c(-c4ccc(F)cc4)cn5CC4CO4)cc3F)ccnc2c1 (centres unmarked) [Example 15, 5-((3-fluoro-4-((7-(2-hydroxy-2-methylpropoxy)quinolin-4-yl)oxy)phenyl)amino)-3-(4-fluorophenyl)-1-(oxiran-2-ylmethyl)-1,6-naphthyridin-4(1H)-one] | –
> 5000 nM | 14.4 nM | COCCn1cc(-c2ccc(F)cc2)c(=O)c2c(Nc3ccc(Oc4ccnc5cc(OCC(C)(C)O)ccc45)c(F)c3)nccc21 [Example 16, 5-((3-fluoro-4-((7-(2-hydroxy-2-methylpropoxy)quinolin-4-yl)oxy)phenyl)amino)-3-(4-fluorophenyl)-1-(2-methoxyethyl)-1,6-naphthyridin-4(1H)-one] | –
> 5000 nM | 40 nM | CC(C)(O)COc1ccc2c(Oc3ccc(Nc4nccc5c4c(=O)c(-c4ccc(F)cc4)cn5CCO)cc3F)ccnc2c1 [Example 17, 5-((3-fluoro-4-((7-(2-hydroxy-2-methylpropoxy)quinolin-4-yl)oxy)phenyl)amino)-3-(4-fluorophenyl)-1-(2-hydroxyethyl)-1,6-naphthyridin-4(1H)-one] | –
> 5000 nM | 40.3 nM | CC(C)(O)COc1ccc2c(Oc3ccc(Nc4nccc5c4c(=O)c(-c4ccc(F)cc4)cn5Cc4ccccc4)cc3F)ccnc2c1 [Example 18, 1-benzyl-5-((3-fluoro-4-((7-(2-hydroxy-2-methylpropoxy)quinolin-4-yl)oxy)phenyl)-amino)-3-(4-fluorophenyl)-1,6-naphthyridin-4(1H)-one] | –
